In patent US4325960A, “6-Amidinopenicillanic acid derivatives including the radical of a β-lactamase inhibitor” (Leo Pharmaceutical Products Ltd. A/S (Lovens Kemiske Fabrik, priority 1979, dated 1982):
Several values for one entry are separate records, joined by “and”; a condition that tells them apart may be missing. Equal entries are not always repeated. Structures can show the parent of a compound that is named as a salt. Each block holds one compound with its values, some of them ahead of it.

Legend:
[1] = in vivo; cited from earlier work
β-lactamases = settings: cited from earlier work
[2] = human, in vivo, po
Description: Serum concentrations and urinary excretion of mecillinam in fasting
following oral administration of
B. 128 mg of VD-1825^x hydrochloride (corresponding to 100 mg of
pivmecillinam hydrochloride) in aqueous solution

[3] = Urinary excretion in 0 to 6 hours of penicillanic acid 1,1-dioxide in fasting volunteers following oral administration; assay type: in vivo, human
Description: Urinary excretion in 0 to 6 hours of penicillanic
acid 1,1-dioxide in fasting volunteers following
A. 60 mg of potassium penicillanate 1,1-dioxide
(corresponding to 52 mg of penicillanic acid
1,1-dioxide) in aqueous solution
B. 128 mg of VD-1825 hydrochloride (corresponding
to 49.0 mg of penicillanic acid 1,1-dioxide) in […]

SMILES: CC(C)(C)C(=O)OCOC(=O)[C@@H]1N2C(=O)C[C@H]2S(=O)(=O)C1(C)C
Absorption from the gastro-intestinal tract on oral administration [1]: absorbed much more slowly

SMILES: CC1(C)[C@H](C(=O)O)N2C(=O)[C@H](Cl)[C@H]2S1(=O)=O [6α-chloropenicillanic acid 1,1-dioxide]
β-lactamase inhibition (β-lactamases): powerful inhibitors of a wide range of β-lactamases

Absorption concluded from urinary recovery of penicillanic acid 1,1-dioxide ([3]; human, in vivo, po): efficient absorption
SMILES: CC1(C)S[C@@H]2[C@H](N=CN3CCCCCC3)C(=O)N2[C@H]1C(=O)OCOC(=O)[C@@H]1N2C(=O)C[C@H]2S(=O)(=O)C1(C)C [VD-1825, 1,1-Dioxopenicillanoyloxymethyl 6-[(hexahydro-1H-azepin-1-yl)-methyleneamino]penicillanate hydrochloride]
Urinary recovery of mecillinam compared with pivmecillinam [2]: comparable to that following administration of pivmecillinam

SMILES: O=C(O)[C@H]1/C(=C/CO)O[C@@H]2CC(=O)N21 [clavulanic acid]
β-lactamase inhibition (β-lactamases): β-lactamase inhibitors

SMILES: CC1(C)S[C@@H]2[C@H](N=CN3CCCCCC3)C(=O)N2[C@H]1C(=O)O [mecillinam, 6-[(hexahydro-1H-azepin-1-yl)-methyleneamino]penicillanic acid]
Absorption from the gastro-intestinal tract on oral administration [1]: incompletely absorbed, when given orally

SMILES: COc1cccc(OC)c1C(=O)N[C@@H]1C(=O)N2[C@@H](C(=O)O)C(C)(C)S(=O)(=O)[C@H]12 [methicillin sulphone, 1,1-dioxo-6β-(2,6-dimethoxybenzamido)penicillanic acid]
β-lactamase inhibition (β-lactamases): powerful inhibitors of a wide range of β-lactamases

SMILES: CC1(C)[C@H](C(=O)O)N2C(=O)C[C@H]2S1(=O)=O [penicillanic acid 1,1-dioxide]
Absorption from the gastro-intestinal tract, cf. Table II ([3]; oral): absorbed poorly or irregularly from the gastro-intestinal tract | β-lactamase inhibition (β-lactamases): powerful inhibitors of a wide range of β-lactamases

SMILES: CC1(C)[C@H](C(=O)[O-])N2C(=O)C[C@H]2S1(=O)=O.[K+] [potassium penicillanate 1,1-dioxide]
Urinary excretion of penicillanic acid 1,1-dioxide ([3]; 0 to 6 hours, individual subject, 60 mg potassium penicillanate 1,1-dioxide oral, aqueous solution, fasting, 360 min): 2.4 % of dose and 3.2 % of dose and 7.7 % of dose and 5.2 % of dose and 2.9 % of dose | Urinary excretion of penicillanic acid 1,1-dioxide, mean ([3]; 0 to 6 hours, mean, 60 mg potassium penicillanate 1,1-dioxide oral, aqueous solution, fasting): 4.3 % of dose | dose excreted at 6 h ([3]; human, in vivo, po, 60 mg, 0 to 6 hours, mean, 60 mg potassium penicillanate 1,1-dioxide oral, aqueous solution, fasting): 4.3%

SMILES: CC1(C)[C@H](C(=O)O)N2C(=O)[C@@H](NC(=O)c3nc4ccccc4nc3C(=O)O)[C@H]2S1(=O)=O [quinacillin sulphone]
β-lactamase inhibition (β-lactamases): powerful inhibitors of a wide range of β-lactamases
